Experimental data: ChEMBL document CHEMBL1143652, “Joys of molecules. 2. Endeavors in chemical biology and medicinal chemistry” (J Med Chem, 2005)
Values after ≈ are worked out from the molar mass of the structure shown.

Legend:
1A9 [1] = assay: Inhibitory concentration against human 1A9 ovarian carcinoma cells; assay type: functional, cell-based
1A9 [2] = assay: Cytotoxicity against 1A9 ovarian cancer cells; assay type: functional, cell-based; conditions: Homo sapiens
Protein kinase C (PKC) = assay: Inhibitory activity against protein kinase C; assay type: protein assay
[3] = biological target: cAMP-dependent protein kinase (PKA) (Homo sapiens, UniProt P22694+P17612+P22612); assay: Inhibitory constant against the protein kinase A; assay type: protein assay
[4] = Antiproliferation activity against cancer cell lines by mixed-lymphocyte-reaction proliferation assay; assay type: functional, cell-based; conditions: Homo sapiens
[5] = biological target: T1, Mycothiol S-conjugate amidase (Mycobacterium tuberculosis, UniProt P9WJN1); assay: Inhibition of Mycobacterium tuberculosis detoxification enzyme mycothiol-S-conjugate amidase (MCA)
T1 sequence (P9WJN1 whole entry): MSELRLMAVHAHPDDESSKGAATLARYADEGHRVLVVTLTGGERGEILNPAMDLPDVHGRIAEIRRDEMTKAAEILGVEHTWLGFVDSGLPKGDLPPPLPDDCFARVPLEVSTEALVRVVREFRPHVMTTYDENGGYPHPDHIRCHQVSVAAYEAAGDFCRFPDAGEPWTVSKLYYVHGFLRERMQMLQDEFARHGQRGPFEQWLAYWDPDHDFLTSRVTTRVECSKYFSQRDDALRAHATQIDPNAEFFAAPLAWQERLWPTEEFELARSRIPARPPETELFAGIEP

Bacteria = assay: Minimum inhibitory concentration against bacterial strains; assay type: functional
Felis catus = species: Felis catus; assay: Inhibition of LTC4 and LTD4 production in cat lung at 5 mM; assay type: functional
1A9 [6] = assay: Cytotoxicity against 1A9 human ovarian carcinoma cells; assay type: functional, cell-based
Enterococcus faecium = assay: Minimum inhibitory concentration against vancomycin resistant Enterococcus faecium; assay type: functional
[7] = In vitro cytotoxicity against leukemia P-388 tumor cells; assay type: functional, cell-based; conditions: Mus musculus, P388
KB 3-1 [8] = assay: Cytotoxicity against KB3-1 human epidermoid cancer cells; assay type: functional, cell-based
KB 3-1 [9] = assay: Cytotoxicity against KB-31 human epidermoid cancer cells; assay type: functional, cell-based
[10] = biological target: Polyunsaturated fatty acid 5-lipoxygenase (Homo sapiens) (UniProt P09917); assay: Inhibitory concentration against 5-lipoxygenase
Polyunsaturated fatty acid 5-lipoxygenase (Homo sapiens), sequence (P09917 whole entry): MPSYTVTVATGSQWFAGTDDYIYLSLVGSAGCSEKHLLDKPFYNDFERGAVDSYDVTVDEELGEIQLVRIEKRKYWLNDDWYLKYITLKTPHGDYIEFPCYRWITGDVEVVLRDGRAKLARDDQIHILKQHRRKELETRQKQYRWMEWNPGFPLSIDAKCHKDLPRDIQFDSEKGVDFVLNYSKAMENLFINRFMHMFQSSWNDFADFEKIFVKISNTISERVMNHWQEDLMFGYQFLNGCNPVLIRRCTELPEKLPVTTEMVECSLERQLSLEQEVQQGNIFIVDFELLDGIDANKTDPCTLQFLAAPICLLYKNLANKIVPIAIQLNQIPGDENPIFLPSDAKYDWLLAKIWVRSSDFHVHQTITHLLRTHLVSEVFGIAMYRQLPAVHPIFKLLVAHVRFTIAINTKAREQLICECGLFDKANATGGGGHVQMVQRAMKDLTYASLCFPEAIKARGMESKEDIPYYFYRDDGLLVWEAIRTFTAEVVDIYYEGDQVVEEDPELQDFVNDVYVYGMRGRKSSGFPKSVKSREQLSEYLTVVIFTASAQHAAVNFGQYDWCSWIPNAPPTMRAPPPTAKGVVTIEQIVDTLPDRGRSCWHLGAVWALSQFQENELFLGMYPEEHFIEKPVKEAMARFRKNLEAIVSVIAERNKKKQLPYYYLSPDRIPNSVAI

MOLT-4 [11] = assay: Inhibitory concentration against MOLT-4 human T-cells; assay type: functional, cell-based
MOLT-4 [12] = assay: Inhibitory concentration against MOLT-4 human T-cells; 10e-12; assay type: functional, cell-based

`COC[C@@H](C[C@H]1O[C@@](O)([C@H](O)[C@@H]2C[C@H](OC)[C@@H](O)CC/C=C(C)/C=C/[C@@H](O[C@@H]3O[C@@H](C)[C@H](OC)[C@@H](O)[C@@H]3O)[C@H](C)/C=C(C)/C=C(C)/C=C(\C)C(=O)O2)[C@H](C)[C@@H](O)[C@H]1C)OC1C[C@](C)(O)[C@@H](O[C@H]2C[C@@H](OC)[C@H](O)[C@@H](C)O2)[C@H](C)O1` (some centres not stated) [APOPTOLIDIN] showed an IC50 (1A9 [1]) of 240 µM.
In the case of `CO[C@@]12C=C3C(=O)O[C@]4(O[C@]35[C@@H](C1)C(C)(C)OC5(CC=C(C)C)C2=O)C(=O)C1=C(C=CC(C)(C)O1)C(=O)C4CC=C(C)C` (some centres not stated) [1-O-METHYLLATERIFLORONE], the IC50 (1A9 [2]) is reported as 25 µM.
In the case of `COC1=C(CC=C(C)C)[C@]2(OC(=O)C3=C[C@]4(OC)C[C@H]5C(C)(C)OC(CC=C(C)C)(C4=O)[C@]35O2)C(=O)C2=C1C=CC(C)(C)O2`, the IC50 (1A9 [2]) is reported as 5 µM.
Compound `O=C(N[C@@H]1CNCCC[C@H]1OC(=O)c1cc(O)c(C(=O)c2ccccc2C(=O)O)c(O)c1)c1ccc(O)cc1` has a Ki (Protein kinase C (PKC)) of 0.64 µM and a Ki [3] of 0.0039 µM.
In the case of `CCCCCCCCCC[C@H]1C[C@H]1CCCC/C=C\CC[C@@H](O)C(=O)N[C@@H](CO[C@@H]1O[C@@H](CO)[C@@H](O)[C@H](O)[C@@H]1O)[C@@H](CCCCCCC[C@@H]1C[C@@H]1CCCCCCCCCC)OC=C(C)C`, the IC50 [4] is reported as 28 µM.
With `COCn1c(Cl)c2c3c(cccc31)-c1cccc3c1OC[C@@]3(c1ccccc1)c1oc(C)nc1-c1nc(Cl)c-2o1` the IC50 (1A9 [1]) was 3.6 µM.
In the case of `C=CCO[C@@H]1[C@H](OC[C@H](NC(=O)[C@H](O)CC/C=C\CCCC[C@@H]2C[C@@H]2CCCCCCCCCC)[C@H](O)CCCCCCC[C@@H]2C[C@@H]2CCCCCCCCCC)O[C@@H](CO)[C@@H](O)[C@@H]1O`, the IC50 [4] is reported as 7.1 µM.
In the case of `O=C(NCCSSc1ccc(F)cc1)/C(Cc1cccc(Br)c1)=N/O`, the IC50 [5] is reported as 90 µM and the MIC (Bacteria) is reported as 0.11 ug m/L.
`CCCCC/C=C\C1(/C=C\C2(/C=C\C3(/C=C\CCCC(=O)O)CC3)CC2)CC1` showed an Inhibition (Felis catus) of 10%.
Compound `COC1(OC)C2=C(OC(C)(C)C=C2)C(=O)[C@@H](OC(=O)C2=C[C@]3(OC)C[C@H]4C(C)(C)OC(CC=C(C)C)(C3=O)[C@]24O)[C@@H]1CC=C(C)C` has an IC50 (1A9 [2]) of 9 µM.
`CC/C=C/C=C/C(=O)N/C=C/C[C@H](O)C[C@H]1C[C@H](OC(C)=O)C[C@H](Cc2cccc3c2C(=O)OC(C)(C)O3)O1` showed an IC50 (1A9 [6]) of 0.035 µM.
In the case of `CC(C)C[C@H]1NC(=O)[C@H](Cc2ccccc2)NC(=O)CNC(=O)[C@H](C)NC(=O)[C@H](Cc2ccc(O)cc2)NC(=O)/C=C\c2ccccc2OCOC1=O`, the MIC (Enterococcus faecium) is reported as 0.25 µg/mL (≈ 0.343 µM).
For `CC1OC(OC2C(Oc3c4cc5cc3Oc3ccc(cc3Cl)[C@H](O)[C@H]3NC(=O)[C@@H](NC(=O)[C@H]5NC(=O)[C@@H](CC(N)=O)NC(=O)[C@@H](NC(=O)[C@@H](N)CO)[C@@H](O)c5ccc(c(Cl)c5)O4)c4ccc(O)c(c4)-c4c(O)cc(O)cc4[C@H](C(=O)NCC(=O)O)NC3=O)OC(CO)C(O)C2O)CC(C)(NCc2cccc(OCC/C=C\COc3cccc(CNC4(C)CC(OC5C(Oc6c7cc8cc6Oc6ccc(cc6Cl)[C@@H](O)[C@@H](NC(=O)[C@H](N)CO)C(=O)N[C@@H](CC(N)=O)C(=O)N[C@H]8C(=O)N[C@H]6C(=O)N[C@H](C(=O)N[C@H](C(=O)NCC(=O)O)c8cc(O)cc(O)c8-c8cc6ccc8O)[C@H](O)c6ccc(c(Cl)c6)O7)OC(CO)C(O)C5O)OC(C)C4O)c3)c2)C1O` (some centres not stated), the MIC (Enterococcus faecium) was 0.25 µg/mL (≈ 0.0779 µM).
For `COC(=O)[C@]1(O)C(=O)c2c(cc(C)c(Br)c2O)[C@H]2[C@@H](C(C)C)CC[C@]21C` [HAMIGERAN A], the IC50 [7] was 31.6 µM.
With `O=C(/C=C/c1cccs1)N/C=C/C[C@H]1C[C@H]2C[C@H](O)C[C@H](Cc3cccc(O)c3C(=O)O1)O2` the IC50 (1A9 [6]) was 0.0413 µM.
Work on `Cc1cc2c(c(O)c1Br)C(=O)C(=O)[C@]1(C)CC[C@H](C(C)C)[C@H]21` [HAMIGERAN B] yielded an IC50 [7] of 13.5 µM.
In the case of `CC(C)=CCCC1(C)C=Cc2c(O)c3c(c(CC=C(C)C)c2O1)O[C@]12C(=CC4C[C@H]1C(C)(C)OC2(CC=C(C)C)C4=O)C3=O` (some centres not stated) [GAMBOGIN], the IC50 (KB 3-1 [8]) is reported as 9.35 µM and the IC50 (KB 3-1 [9]) is reported as 9.35 µM.
Compound `CCCCC/C=C\C\C=C/C=C/C=C/[C@@H]1C[C@H]1CCCC(=O)O` has an ID50 [10] of 44 µM.
`CCCCC/C=C\C/C=C\C/C=C\C1(/C=C\CCCC(=O)O)CC1` gave an Inhibition (Felis catus) of 8%.
`CCCCCCCCCC[C@H]1C[C@H]1CCCC/C=C\CC[C@@H](O)C(=O)N[C@@H](CO[C@@H]1O[C@@H](CO)[C@@H](O)[C@H](O)[C@@H]1OC/C=C(\C)CCC=C(C)C)[C@H](O)CCCCCCC[C@@H]1C[C@@H]1CCCCCCCCCC` gave an IC50 [4] of 28 µM.
Work on `O=C(N[C@@H]1CNCCC[C@H]1OC(=O)c1ccc(C(=O)c2c(O)cccc2C(=O)O)cc1)c1ccc(O)cc1` yielded a Ki (Protein kinase C (PKC)) of 0.08 µM and a Ki [3] of 0.0034 µM.
`COC(=O)N/C(C)=C1/C(=C/CSSSC)[C@@](O)(CC=O)C#C/C=C\C#C[C@@H]1O` showed an IC50 (MOLT-4 [11]) of 1.2 pM and an IC50 (MOLT-4 [12]) of 1.2 pM.
